According to patent publication US20120015923A1, “USE OF ANDROGRAPHOLIDE COMPOUNDS FOR TREATING INFLAMMATION AND AIRWAY DISORDERS” (NATIONAL UNIVERSITY OF SINGAPORE, priority 2009, published 2012):

What was measured:
[1] = system: NF-κB signaling pathway in normal human bronchial epithelial cells; assay: TNF-α-induced NF-κB activation in normal human bronchial epithelial cells (immunoblotting, TransAM p65 ELISA); type: cell-based; conditions: 30 μM
Experimental: (§1) To determine the effects of andrograhpolide on OVA-specific immune responses in lymphocytes, thoracic lymph node cells were grown in bronchial epithelial bulletkit medium (Cambrex BioScience, Walkersvile, Md., USA), supplemented with bovine pituitary extract (2 ml), hydrocortisone (0.5 ml), recombinant human EGF (0.5 ml), epinephrine (0.5 ml), transferrin (0.5 ml), insulin (0.5 ml), retinoic acid (0.5 ml), triiodothyronine (0.5 ml), gentamycin sulfate (50 μg/ml), and amphotericin B (50 ng/ml). The cells were incubated in 5% CO2 incubator at 37° C., and subcultured at 80% to 85% confluency. Cells were exposed to 200 μg/ml OVA for 72 hours. Concanavalin A (Con A, 10 μug/ml) was used as a positive control. Supernatants from parallel triplicate cultures were analyzed for cytokine levels by ELISA. Normal human bronchial epithelial cells were cultured in optimized bronchial epithelial bulletkit medium with supplements (Lonza, Basel, Switzerland). Cells were pretreated with 30 μM andrographolide or vehicle (0.01% DMSO) 4 hours before stimulation with 10 ng/ml tumor necrosis factor (TNF)-α. Total and nuclear proteins, and mRNA were extracted from cells at specified time intervals.
Lung and cell culture nuclear proteins ([…]) were isolated. Lysates were incubated on ice for 30 min before centrifugation (18,000 g for 5 min). The supernatants were collected, and protein concentrations were determined using a BCA protein assay kit. 28 μl of the protein measured were mixed with 7 μl 5× sample buffer and boiled at 95° C. for 5 min. 10% SDS-PAGE gel was set as known in the art. The gel was placed in a Trans-Blot tank (Bio-Rad Laboratories, Hercules, Calif.). 30 μl of the sample mixtures and Pre-stained SDS Page Marker (Bio-Rad Laboratories, Hercules, Calif.) were loaded into respective wells and ran at 100V for 2 hours. The proteins were then transferred to a PVDF membrane using a semi-dry transblotter (ATTO Corp, Tokyo, Japan). The PVDF membrane was blocked with 5% non-fat milk in Tween-20 Tris buffered saline (TTBS) for 2 hours and probed with various primary antibodies in 1% non-fat milk in TTBS (1:2,000 for anti-rabbit antibodies; 1:5,000 for anti-mouse antibodies; 1:10,000 for β-actin) overnight at 4° C. The PVDF was then washed with TTBS for 10 times (2-3 min each), and incubated in HRP- or AP-conjugated anti-mouse or anti-rabbit antibodies for 1 hour. The membrane was again washed with TTBS. For HRP-conjugated antibody, 1 ml each of HRP substrate 1 and substrate 2 were added onto the membrane. For AP-conjugated antibody, 7.5 ml of AP substrates (300 μl AP 25×Buffer, 75 μl Reagent A, 75 μl Reagent B, 7.5 ml water) was added per gel. The data was then developed in the dark on hyperfilms using an ECL reagent. Immunoblots were probed with anti-p65, anti-phospho-p65 (Ser536), and anti-TATA binding protein (TBP, Abcam, Cambridge, UK).
Nuclear proteins were also analyzed for NF-κB DNA-binding activity using the TransAM p65 transcription factor assay kit (Active Motif, Carlsbad, Calif.).

[2] = system: IL-6, IL-8 and RANTES mRNA in normal human bronchial epithelial cells; assay: TNF-α-induced cytokine mRNA expression in normal human bronchial epithelial cells; type: cell-based; conditions: 10 ng/ml TNF-α for 12 hours; 30 μM
Experimental: as §1
PCR amplifications were then performed using the multiwell thermal cycler on 1 μl cDNA template in a 25 μl reaction volume. The reaction volume contained 10.5 μl nuclease-free water, 0.5 μl forward primer (10 μM), 0.5 μl reverse primer (10 μM) and 12.5 μl 2×PCR master mix (50 units/ml TaqDNA polymerase, 400 μM dATP, 400 μM dGTP, 400 μM dCTP, 400 μM dTTP and 3 mM MgCl2).

OVA-induced AHR = assay: Airway hyper-responsiveness (AHR) to intravenous methacholine; type: in vivo, BALB/c mice; conditions: 1 mg/kg; for OVA-induced airway hyperresponsiveness (AHR) to methacholine: OVA-challenged mice
Experimental: Mice were anesthetized and tracheotomy was performed as described above. The internal jugular vein was cannulated and connected to a microsyringe for intravenous methacholine administration. Airway resistance (RI) and dynamic compliance (Cdyn) in response to increasing concentrations of mechacholine were recorded using a whole body plethysmograph chamber (Buxco, Sharon, Conn.) and ventilated mechanically by a ventilator via the tube that was inserted into the trachea at a tidal volume of 200 μl/breadth and a breathing rate of 150/min. Airflow and pressure changes were detected by respective transducers, recorded and analyzed by Biosystem XA software (Buxco, Sharon, Conn., USA). Results are expressed as a percentage of the respective basal values in response to phosphate buffered saline (PBS).

[3] = system: total IgE and OVA-specific IgE, IgG1, and IgG2a in serum; assay: Serum Ig levels (ELISA), OVA mouse asthma model; type: in vivo, BALB/c mice; conditions: OVA-challenged mice, serum 24 hours after last OVA aerosol; for serum OVA-specific IgE level: DDAG even at lowest dose 0.1 mg/kg
Experimental: Blood collected from the hearts were allowed to clot for at least 4 h. Centrifugation at 3000 rpm for 5 min at 4° C. was then performed on all blood samples. The supernatant, which is the serum, was extracted carefully and stored at −80° C. The samples were kept for ELISA.
Mice were anesthetized 24 hours after the last aerosol challenge and bronchoalveolar lavage (BAL) was performed as described above. BAL fluid total and differential cell counts, and cytokine and chemokine levels were determined as described above. Blood was collected by cardiac puncture, and serum levels of total IgE and OVA-specific IgE, IgG1, and IgG2a levels were determined.
Levels of total IgE and OVA-specific IgE, IgG 1 , and IgG2a in serum were measured. 96-well ELISA plate coated with either 50 μl of capture antibody (for total IgE, 1:250 dilution with 1 M Na2CO3) or 50 μl of 20 μg/ml OVA (for OVA-specific IgE, IgG1, and IgG2a) overnight at 4° C. Next day, the plate was washed with washing buffer (PBS with 0.05% Tween-20 for total IgE; PBS with 0.1% Tween-20 for OVA-specific IgE) and blocked with 300 μl 10% FBS in PBS for 2 hr at room temperature. After blocking, standards (only for total IgE) and serum samples were loaded into respective wells and incubated for 2 h. Followed by washing, respective detective antibodies were added and incubated for 1 h, followed by 45 min incubation of HRP-conjugate antibody for 45 min in the dark. Substrates were then added for 30 min in the dark with mild shaking. Lastly, 50 μl of stopping solution (1 M H2SO4) was added to stop the reaction. The optical density of each well in the plate was read at 450 nm with λ correction at 570 nm. The detection limit for total IgE was 2 ng/ml.

[4] = OVA-challenged, mechanically ventilated mice
[5] = DDAG significant at higher doses
[6] = 10 ng/ml TNF-α for 5, 15 and 30 minutes

SMILES | TNF-α-induced p65 DNA-binding ([1]; 10 ng/ml TNF-α for 5 minutes) | TNF-α-induced p65 nuclear translocation ([1]; 10 ng/ml TNF-α for 5 minutes) | TNF-α-induced up-regulation of RANTES mRNA expression [2] | OVA-induced airway hyperresponsiveness (AHR) to methacholine (OVA-induced AHR) | dynamic compliance (Cdyn) in response to methacholine (OVA-induced AHR; [4]) | lung resistance (RI) in response to methacholine (OVA-induced AHR; [4]) | serum OVA-specific IgG2a level [3] | serum OVA-specific IgE level [3] | serum total IgE level [3, 5] | TNF-α-induced IκBα degradation [1, 6] | TNF-α-induced p65 subunit of NF-κB phosphorylation [1, 6] | TNF-α-induced phosphorylation of IKKβ [1, 6] | IκB phosphorylation ([1]; 10 ng/ml TNF-α) | TNF-α-induced p65 DNA-binding activity ([1]; TNF-α for 30 minutes) | TNF-α-induced p65 nuclear translocation ([1]; TNF-α for 30 minutes) | TNF-α-induced up-regulation of IL-6 mRNA expression [2] | TNF-α-induced up-regulation of IL-8 mRNA expression [2] | serum OVA-specific IgG1 level [3, 5]
C=C1CCC2C(C)(CO)C(O)CCC2(C)C1C=CC1=CCOC1=O (centres unmarked) [DDAG, 14-Deoxy-11,12-didehydroandrographolide] | markedly abated | markedly abated | strongly suppressed | significantly inhibited | restored | dramatically reduced | no effects | strongly suppressed | to a lesser extent |  |  |  |  |  |  |  |  | 
C=C1CC[C@@H]2[C@](C)(CO)[C@H](O)CC[C@@]2(C)[C@@H]1C/C=C1/C(=O)OC[C@H]1O [Andrographolide] |  |  | noticeably blocked | blocked |  |  | inhibition | significantly lowered | significantly lowered | blocked | blocked | blocked | inhibition | blocked | blocked | noticeably blocked | noticeably blocked | inhibition
